Assay results from patent US20180280377A1, “Imidazo[4,5-c]quinolin-2-one Compounds and Their Use in Treating Cancer” (ASTRAZENECA AB, priority 2015, published 2018).

Columns and labels:
Format in all cases: cell-based
[1] = biological target: PI3Kα (Homo sapiens, UniProt P42336); experiment: PI3K cellular potency assay (phospho-Akt T308 in BT474 cells, ELISA); conditions: 2 h, phospho-Akt (T308); Table 2; read-out: Assay c) PI3Kα Cell IC50
Procedure: (§1) The following assays were used to measure the effects of the compounds of the present invention: a) ATM cellular potency assay; b) PI3K cellular potency assay; c) mTOR cellular potency assay; d) ATR cellular potency assay. During the description of the assays, generally: • i. […] IC50 values were calculated using a smart fitting model in Genedata.
This assay was used to measure PI3K-α inhibition in cells. PDK1 was identified as the upstream activation loop kinase of protein kinase B (Akt1), which is essential for the activation of PKB. Activation of the lipid kinase phosphoinositide 3 kinase (PI3K) is critical for the activation of PKB by PDK1.
Following ligand stimulation of receptor tyrosine kinases, PI3K is activated, which converts PIP2 to PIP3, which is bound by the PH domain of PDK1 resulting in recruitment of PDK1 to the plasma membrane where it phosphorylates AKT at Thr308 in the activation loop.
The aim of this cell-based mode of action assay is to identify compounds that inhibit PDK activity or recruitment of PDK1 to membrane by inhibiting PI3K activity. Phosphorylation of phospho-Akt (T308) in BT474c cells following treatment with compounds for 2 h is a direct measure of PDK1 and indirect measure of PI3K activity.
The following morning compounds in 100% DMSO were added to assay plates by acoustic dispensing.
Plates were incubated over night at 4° C. The next day the plates were washed with PBS buffer containing 0.05% Tween 20 and further incubated with a mouse monoclonal anti-phospho AKT T308 for 2 h. Plates were washed again as above before addition of a horse anti-mouse-HRP conjugated secondary antibody. […] The developed fluorescent product was stopped after 60 minutes by addition of Stop solution to the wells.

[2] = biological target: T1, ATM (Homo sapiens, UniProt Q13315); experiment: ATM cellular potency assay (pATM Ser1981 in irradiated HT29 cells); conditions: 1 h compound, X-ray irradiation, pATM (Ser1981); Table 2; read-out: Assay a) ATM Cell IC50
T1 construct: endogenous in cells; host or cells: HT29 cells (ECACC #85061109)
Procedure: as §1
Most ATM molecules in the cell are rapidly phosphorylated on this site after doses of radiation as low as 0.5 Gy, and binding of a phosphospecific antibody is detectable after the introduction of only a few DNA double-strand breaks in the cell.
The rationale of the pATM assay is to identify inhibitors of ATM in cells. HT29 cells are incubated with test compounds for 1 h prior to X-ray-irradiation. 1 h later the cells are fixed and stained for pATM (Ser1981). The fluorescence is read on the arrayscan imaging platform.
The following morning compounds of Formula (I) in 100% DMSO were added to assay plates by acoustic dispensing. After 1 h incubation at 37° C. and 5% CO2, plates (up to 6 at a time) were irradiated using the X-RAD 320 instrument (PXi) with equivalent to 600 cGy. Plates were returned to the incubator for a further 1 h. Then cells were fixed by adding 20 μl of 3.7% formaldehyde in PBS solution and incubating for 20 minutes at r.t. before being washed with 50μl/well PBS, using a Biotek EL405 plate washer. Then 20 μl of 0.1% Triton X100 in PBS was added and incubated for 20 minutes at r.t., to permeabalise cells. Then the plates were washed once with 50 μl/well PBS, using a Biotek EL405 plate washer.
After 1 h incubation at r.t., the plates were washed three times with 50 μl/well PBS, using a Biotek EL405 plate washer, and plates were sealed and kept in PBS at 4° C. until read. Plates were read using an ArrayScan VTI instrument, using an XF53 filter with 10× objective.

[3] = biological target: T2, ATR (Homo sapiens, UniProt Q13535); experiment: ATR cellular potency assay (pChk1 Ser345 in HT29 cells after 4NQO); conditions: pChk1 (Ser 345); Table 2; read-out: Assay b) ATR Cell IC50
T2 construct: endogenous in cells; host or cells: HT29 cells (ECACC #85061109)
Procedure: as §1
ATR is a PI3-kinase-related kinase which phosphorylates multiple substrates on serine or threonine residues in response to DNA damage during or replication blocks. Chk1, a downstream protein kinase of ATR, plays a key role in DNA damage checkpoint control. Activation of Chk1 involves phosphorylation of Ser317 and Ser345 (the latter regarded as the preferential target for phosphorylation/activation by ATR).
The following morning compound of Formula (I) in 100% DMSO were added to assay plates by acoustic dispensing. After 1 h incubation at 37° C. and 5% CO2, 40 nl of 3 mM 4NQO in 100% DMSO was added to all wells by acoustic dispensing, except minimum control wells which were left untreated with 4NQO to generate a null response control. Plates were returned to the incubator for a further 1 h. Then cells were fixed by adding 20 μl of 3.7% formaldehyde in PBS solution and incubating for 20 mins at r.t. Then […] of 0.1% Triton X100 in PBS was added and incubated for 10 minutes at r.t., to permeabalise cells. Then the plates were washed once with […] PBS, using a Biotek EL405 plate washer.
After 2 h incubation at r.t., the plates were washed three times with […] PBS, using a Biotek EL405 plate washer, and plates were then sealed with black plate seals until read. Plates were read using an ArrayScan VTI instrument, using an XF53 filter with 10× objective.

T2 sequence (Q13535 whole entry): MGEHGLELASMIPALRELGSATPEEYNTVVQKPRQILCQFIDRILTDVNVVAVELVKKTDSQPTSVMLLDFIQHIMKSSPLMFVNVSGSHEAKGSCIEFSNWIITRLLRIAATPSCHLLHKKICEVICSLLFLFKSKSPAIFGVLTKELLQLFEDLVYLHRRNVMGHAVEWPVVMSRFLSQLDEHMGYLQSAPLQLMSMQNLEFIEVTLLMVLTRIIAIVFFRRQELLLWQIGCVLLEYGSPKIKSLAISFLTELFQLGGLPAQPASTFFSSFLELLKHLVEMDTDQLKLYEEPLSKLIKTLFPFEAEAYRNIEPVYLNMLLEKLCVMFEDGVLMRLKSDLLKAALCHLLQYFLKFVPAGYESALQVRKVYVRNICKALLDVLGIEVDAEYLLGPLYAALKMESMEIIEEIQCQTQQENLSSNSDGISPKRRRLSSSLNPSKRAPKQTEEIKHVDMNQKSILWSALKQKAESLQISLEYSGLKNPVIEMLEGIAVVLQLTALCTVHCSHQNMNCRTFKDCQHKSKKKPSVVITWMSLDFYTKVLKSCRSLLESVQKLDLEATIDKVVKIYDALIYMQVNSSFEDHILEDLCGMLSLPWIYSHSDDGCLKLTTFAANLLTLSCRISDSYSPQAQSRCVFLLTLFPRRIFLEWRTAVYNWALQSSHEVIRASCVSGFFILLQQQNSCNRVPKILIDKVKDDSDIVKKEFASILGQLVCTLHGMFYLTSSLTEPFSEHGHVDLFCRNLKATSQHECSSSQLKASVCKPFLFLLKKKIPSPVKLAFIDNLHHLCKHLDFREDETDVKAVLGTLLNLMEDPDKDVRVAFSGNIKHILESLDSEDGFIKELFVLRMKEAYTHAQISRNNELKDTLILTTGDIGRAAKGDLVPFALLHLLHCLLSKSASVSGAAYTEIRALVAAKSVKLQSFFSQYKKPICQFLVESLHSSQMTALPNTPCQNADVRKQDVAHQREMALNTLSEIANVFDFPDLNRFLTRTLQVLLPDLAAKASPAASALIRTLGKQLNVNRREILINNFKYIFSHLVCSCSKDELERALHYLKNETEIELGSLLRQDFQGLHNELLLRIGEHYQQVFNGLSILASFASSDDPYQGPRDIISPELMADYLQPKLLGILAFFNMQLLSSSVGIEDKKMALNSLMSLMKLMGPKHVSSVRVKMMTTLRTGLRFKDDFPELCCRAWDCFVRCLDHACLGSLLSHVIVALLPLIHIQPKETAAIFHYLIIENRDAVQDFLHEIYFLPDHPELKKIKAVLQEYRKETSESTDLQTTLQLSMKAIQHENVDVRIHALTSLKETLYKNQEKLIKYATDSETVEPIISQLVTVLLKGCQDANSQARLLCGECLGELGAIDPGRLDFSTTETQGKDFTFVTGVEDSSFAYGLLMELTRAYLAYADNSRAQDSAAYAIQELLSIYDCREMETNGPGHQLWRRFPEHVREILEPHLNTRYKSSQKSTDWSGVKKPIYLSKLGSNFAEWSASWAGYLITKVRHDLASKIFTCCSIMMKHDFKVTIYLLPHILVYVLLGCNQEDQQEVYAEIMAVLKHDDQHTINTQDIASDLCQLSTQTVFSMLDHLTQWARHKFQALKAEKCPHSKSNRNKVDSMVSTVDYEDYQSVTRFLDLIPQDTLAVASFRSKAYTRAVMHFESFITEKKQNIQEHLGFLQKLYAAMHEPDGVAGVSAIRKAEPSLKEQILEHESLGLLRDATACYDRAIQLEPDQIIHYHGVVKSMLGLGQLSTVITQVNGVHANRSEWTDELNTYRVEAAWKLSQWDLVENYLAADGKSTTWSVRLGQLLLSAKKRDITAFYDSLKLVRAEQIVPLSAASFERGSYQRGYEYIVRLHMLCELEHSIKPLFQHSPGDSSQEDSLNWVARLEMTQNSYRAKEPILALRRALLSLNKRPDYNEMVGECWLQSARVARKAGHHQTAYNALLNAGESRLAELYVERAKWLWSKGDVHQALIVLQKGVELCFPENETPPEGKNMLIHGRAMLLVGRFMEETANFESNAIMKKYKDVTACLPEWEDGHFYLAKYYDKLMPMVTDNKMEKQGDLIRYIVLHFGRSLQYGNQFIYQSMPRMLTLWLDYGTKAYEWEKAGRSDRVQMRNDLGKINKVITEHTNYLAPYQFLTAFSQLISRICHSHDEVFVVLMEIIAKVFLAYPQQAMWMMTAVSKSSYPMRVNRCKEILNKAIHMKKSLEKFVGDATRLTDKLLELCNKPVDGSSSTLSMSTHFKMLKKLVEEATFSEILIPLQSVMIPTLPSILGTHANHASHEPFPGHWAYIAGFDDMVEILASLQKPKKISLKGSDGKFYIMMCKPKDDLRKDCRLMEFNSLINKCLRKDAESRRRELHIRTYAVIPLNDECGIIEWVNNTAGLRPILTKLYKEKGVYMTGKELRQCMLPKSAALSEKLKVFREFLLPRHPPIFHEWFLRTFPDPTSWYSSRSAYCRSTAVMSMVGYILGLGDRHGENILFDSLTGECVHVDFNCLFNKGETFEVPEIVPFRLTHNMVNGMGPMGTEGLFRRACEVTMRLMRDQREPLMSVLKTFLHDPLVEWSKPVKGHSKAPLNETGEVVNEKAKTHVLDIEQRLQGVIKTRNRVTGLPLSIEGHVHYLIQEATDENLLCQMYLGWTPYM
T2 sequence (Q8WXE1 whole entry partner): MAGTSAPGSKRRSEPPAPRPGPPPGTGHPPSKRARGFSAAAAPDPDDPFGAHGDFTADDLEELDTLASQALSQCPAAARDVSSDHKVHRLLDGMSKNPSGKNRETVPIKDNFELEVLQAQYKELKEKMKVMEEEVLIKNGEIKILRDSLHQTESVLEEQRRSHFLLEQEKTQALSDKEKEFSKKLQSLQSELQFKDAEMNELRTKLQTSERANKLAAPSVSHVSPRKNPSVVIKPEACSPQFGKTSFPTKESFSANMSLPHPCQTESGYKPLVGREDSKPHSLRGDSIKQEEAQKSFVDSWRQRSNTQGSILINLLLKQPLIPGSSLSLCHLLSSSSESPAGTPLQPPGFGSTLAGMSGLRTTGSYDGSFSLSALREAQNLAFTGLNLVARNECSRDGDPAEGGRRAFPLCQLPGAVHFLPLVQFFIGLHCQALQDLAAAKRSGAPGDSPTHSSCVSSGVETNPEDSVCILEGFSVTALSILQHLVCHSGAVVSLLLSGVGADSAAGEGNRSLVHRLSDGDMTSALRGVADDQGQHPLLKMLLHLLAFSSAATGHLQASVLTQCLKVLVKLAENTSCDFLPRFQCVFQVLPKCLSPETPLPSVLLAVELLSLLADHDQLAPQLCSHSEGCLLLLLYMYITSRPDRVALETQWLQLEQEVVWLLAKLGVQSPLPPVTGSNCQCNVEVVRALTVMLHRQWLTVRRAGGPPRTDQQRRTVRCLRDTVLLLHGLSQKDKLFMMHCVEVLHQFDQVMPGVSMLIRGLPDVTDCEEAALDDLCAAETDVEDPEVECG

| IC50 [1] | IC50 [2] | IC50 [3] | Compound |
| --- | --- | --- | --- |
| 0.47 µM |  |  | CC(C)n1c(=O)n(C)c2cnc3ccc(-c4ccc(N5CC[C@@H](N(C)C)C5)nc4)cc3c21 [Example 1, 8-[6-[(3R)-3-(Dimethylamino)pyrrolidin-1-yl]-3-pyridyl]-1-isopropyl-3-methyl-imidazo[4,5-c]quinolin-2-one] |
|  | 0.0166 µM | 9.23 µM | CN(C)C1CN(c2ccc(-c3ccc4ncc5c(c4c3)n([C@H]3CCCOC3)c(=O)n5C)cn2)C1 [Example 24, 8-[6-[3-(dimethylamino)azetidin-1-yl]-3-pyridyl]-3-methyl-1-[(3S)-tetrahydropyran-3-yl]imidazo[4,5-c]quinolin-2-one] |
|  | 0.000618 µM | > 30 µM | CO[C@@H]1CCC[C@H](n2c(=O)n(C)c3cnc4ccc(-c5ccc(N6CCC(N(C)C)CC6)nc5)cc4c32)C1 (single isomer, unassigned) [Example 45] |
|  | 0.0027 µM | 1.8 µM | CO[C@@H]1CCC[C@H](n2c(=O)n(C)c3cnc4ccc(-c5ccc(N6CC[C@@H](N(C)C)C6)nc5)cc4c32)C1 (single isomer, unassigned) [Example 47] |
|  | 0.00138 µM | > 30 µM | CNC1CCN(c2ccc(-c3ccc4ncc5c(c4c3)n([C@H]3CCCOC3)c(=O)n5C)cn2)CC1 [Example 59, 3-methyl-8-[6-[4-(methylamino)-1-piperidyl]-3-pyridyl]-1-[(3S)-tetrahydropyran-3-yl]imidazo[4,5-c]quinolin-2-one] |
|  | 0.00391 µM | > 30 µM | CN(C)C1CCN(c2ccc(-c3ccc4ncc5c(c4c3)n(C3COC3)c(=O)n5C)cn2)CC1 [Example 38, 8-[6-[4-(dimethylamino)-1-piperidyl]-3-pyridyl]-3-methyl-1-(oxetan-3-yl)imidazo[4,5-c]quinolin-2-one] |
|  | 0.0195 µM | 18.8 µM | CN(C)C1CN(c2ccc(-c3ccc4ncc5c(c4c3)n(C3CCOCC3)c(=O)n5C)cn2)C1 [Example 28, 8-[6-[3-(dimethylamino)azetidin-1-yl]-3-pyridyl]-3-methyl-1-tetrahydropyran-4-yl-imidazo[4,5-c]quinolin-2-one] |
|  | 0.0186 µM | > 22.3 µM | CN(C)[C@H]1CCN(c2ccc(-c3ccc4ncc5c(c4c3)n([C@@H]3CCCOC3)c(=O)n5C)cn2)C1 [Example 16] |
|  | 0.0249 µM | > 30 µM | CO[C@H]1CC[C@H](n2c(=O)n(C)c3cnc4cc(F)c(-c5ccc(N6CC(N(C)C)C6)nc5)cc4c32)C1 (single isomer, unassigned) [Example 30, 8-[6-[3-(dimethylamino)azetidin-1-yl]-3-pyridyl]-7-fluoro-1-[trans-3-methoxycyclopently]-3-methyl-imidazo[4,5-c]quinolin-2-one] |
|  | 0.0137 µM | > 30 µM | CN(C)[C@H]1CCN(c2ccc(-c3ccc4ncc5c(c4c3)n([C@H]3CCCOC3)c(=O)n5C)cn2)C1 [Example 17] |
|  | 0.000112 µM | 0.0616 µM | CO[C@H]1CCC[C@H](n2c(=O)n(C)c3cnc4ccc(-c5ccc(N6CC[C@@H](N(C)C)C6)nc5)cc4c32)C1 (single isomer, unassigned) [Example 52] |
|  | 0.000589 µM | 0.0906 µM | CO[C@H]1CCC[C@H](n2c(=O)n(C)c3cnc4ccc(-c5ccc(N6CC[C@@H](N(C)C)C6)nc5)cc4c32)C1 (single isomer, unassigned) [Example 51] |
|  | 0.000752 µM | 3.21 µM | CO[C@H]1C[C@@H](n2c(=O)n(C)c3cnc4ccc(-c5ccc(N6CC[C@@H](N(C)C)C6)nc5)cc4c32)C1 [Example 10] |
|  | 0.0077 µM | > 10 µM | CO[C@@H]1CCC[C@H](n2c(=O)n(C)c3cnc4ccc(-c5ccc(N6CCC(N(C)C)CC6)nc5)cc4c32)C1 (single isomer, unassigned) [Example 46, 8-[6-[4-(dimethylamino)-1-piperidyl]-3-pyridyl]-1-[cis-3-methoxycyclohexyl]-3-methyl-imidazo[4,5-c]quinolin-2-one] |
|  | 0.000842 µM | 2.48 µM | CN(C)[C@@H]1CCN(c2ccc(-c3ccc4ncc5c(c4c3)n([C@H]3CCCOC3)c(=O)n5C)cn2)C1 [Example 9] |
|  | 0.00929 µM | > 20.1 µM | CN(C)C1CN(c2ccc(-c3ccc4ncc5c(c4c3)n(C3CCC3)c(=O)n5C)cn2)C1 [Example 26, 1-cyclobutyl-8-[6-[3-(dimethylamino)azetidin-1-yl]-3-pyridyl]-3-methyl-imidazo[4,5-c]quinolin-2-one] |
|  | 0.00146 µM | > 30 µM | CN(C)[C@@H]1CCN(c2ccc(-c3cc4c(cc3F)ncc3c4n([C@H]4CCCOC4)c(=O)n3C)cn2)C1 [Example 15] |
|  | 0.000911 µM | > 30 µM | CN(C)C1CCN(c2ccc(-c3ccc4ncc5c(c4c3)n(C3CCC3)c(=O)n5C)cn2)CC1 [Example 37, 1-cyclobutyl-8-[6-[4-(dimethylamino)-1-piperidyl]-3-pyridyl]-3-methyl-imidazo[4,5-c]quinolin-2-one] |
|  | 0.0127 µM | 17.5 µM | CO[C@H]1C[C@@H](n2c(=O)n(C)c3cnc4ccc(-c5ccc(N6CC[C@H](N(C)C)C6)nc5)cc4c32)C1 [Example 18] |
| 0.243 µM |  |  | CC(C)n1c(=O)n(C)c2cnc3ccc(-c4ccc(N5CC(N(C)C)C5)nc4)cc3c21 [Example 4, 8-[6-[3-(dimethylamino)azetidin-1-yl]-3-pyridyl]-1-isopropyl-3-methyl-imidazo[4,5-c]quinolin-2-one] |
|  | 0.00225 µM | > 21.8 µM | CNC1CCN(c2ccc(-c3ccc4ncc5c(c4c3)n([C@@H]3CCCOC3)c(=O)n5C)cn2)CC1 [Example 58, 3-methyl-8-[6-[4-(methylamino)-1-piperidyl]-3-pyridyl]-1-[(3R)-tetrahydropyran-3-yl]imidazo[4,5-c]quinolin-2-one] |
|  | 0.0634 µM | > 30 µM | CN(C)[C@H]1CCN(c2ccc(-c3cc4c(cc3F)ncc3c4n([C@@H]4CCCOC4)c(=O)n3C)cn2)C1 [Example 19] |
|  | 0.0228 µM | > 24 µM | CO[C@H]1CC[C@H](n2c(=O)n(C)c3cnc4ccc(-c5ccc(N6CC(N(C)C)C6)nc5)cc4c32)C1 (single isomer, unassigned) [Example 23, 8-[6-[3-(dimethylamino)azetidin-1-yl]-3-pyridyl]-1-[trans-3-methoxycyclopentyl]-3-methyl-imidazo[4,5-c]quinolin-2-one] |
|  | 0.00269 µM | > 30 µM | 8-[6-[4-(dimethylamino)-1-piperidyl]-3-pyridyl-3-methyl-1-tetrahydropyran-4-yl-imidazo[4,5-c]quinolin-2-one [Example 39] |
